In patent US6521641B1, “Male anti-fertility agents” (Allergan, Inc., priority 1998, dated 2003):

Columns and labels:
[1] = system: Sprague-Dawley rats; test: Topical treatment of Sprague-Dawley rats with AGN 194310 cream for 28 days (Example 2); assay type: in vivo, rat
Protocol: Twenty-nine male and twenty-nine female Sprague-Dawley rats, approximately 7 weeks old were used for the study. Five rats/sex/group were designated as Main Study animals: (vehicle control, 0.025 mg/kg/day AGN 194310, and 0.25 mg/kg/day AGN 194310), and 7/sex/group designated as toxicokinetic satellite animals (0.025 mg/kg/day AGN 194310 and 0.25 mg/kglday AGN 194310). No “vehicle alone” control group was made for the toxicokinetic satellite animals. In this study there was no Recovery group.
The animals' backs were maintained shaven during the course of the study for application of the topical cream. The animals were treated daily with a topical formulation containing either AGN 194310 vehicle cream alone, 0.01% (w/w) AGN 194310 in the same vehicle cream, or 0.1% (w/w) AGN 194310 in the same vehicle cream. The vehicle cream consisted of a mixture of the following ingredients:
Daily dosages were calculated using the most recently obtained body weight, as shown below. The test or control creams were applied for 28 consecutive days to the shaved back of each animal in an area approximately equal to 35.5 cm^2. Application was made using a repeat pipettor, and the drug gently massaged into the skin. An Elizabethan collar was affixed around each animal's neck for a period of about 6 hours following treatment to prevent removal or systemic ingestion of the drug.
Blood was drawn at day 29 via cardiac puncture, as described in Example 1. The animals were first permitted to fast for approximately 16 hours prior to blood collection. Satellite animals were sacrificed on day 28.

[2] = system: male Sprague Dawley rats; test: Reversibility of spermatogenic arrest, oral AGN 194310 for 4 weeks and recovery (Example 3); assay type: in vivo, rat
Protocol: Groups of male Sprague Dawley rats were treated orally for 4 weeks with either 0, 0.075, or 0.150 mg/kg/day of AGN 194310. Three to six animals from each group were sacrificed after 2 weeks of treatment, 6 animals from each group were sacrificed following 4 weeks of treatment and 6 animals from each group were sacrificed after 18-23 weeks of subsequent recovery after cessation of treatment. Histological and pathological examinations were done of the sacrificed animals, as in Example 1. Additionally, the animals in the 23 week recovery group were mated to normal, untreated female Sprague Dawley rats before being sacrificed to assess the reproductive function.

[3] = oral 0.075 mg/kg, after 18 weeks of recovery
[4] = oral 0.075 mg/kg, after 23 weeks of recovery

CCc1ccc(C2=CC(C)(C)Sc3ccc(C#Cc4ccc(C(=O)O)cc4)cc32)cc1 [AGN 194310, 4-[[4-(4-ethylphenyl)-2,2-dimethyl-(2H)-thiochromen-6-yl]-ethynyl]-benzoic acid]
germ cells in the head of the epididymis ([1]; majority of males displaying spermatogenic arrest, topical): notable reduction of germ cells
hematological differences versus control rats ([1]; male rats in all groups, topical): no statistically significant hematological differences
treatment-related skin irritation ([1]; rats, topical skin application, 0.025 and 0.25 mg/kg/day, 28 days): did not result in any evidence of treatment-related skin irritation
clinical observations, body weight, food consumption, gross pathology ([1]; rats, topical, 0.025 and 0.25 mg/kg/day, 28 days): No treatment-related clinical observations, differences in body weight, differences in food consumption, or in gross pathology were observed
male rats with atrophy of the seminiferous tubules with concomitant spermatogenic arrest ([1]; topical 0.025 mg/kg/day, 28 days): 0 out of 5
male rats with atrophy of the seminiferous tubules with concomitant spermatogenic arrest ([1]; topical 0.25 mg/kg/day, 28 days): 5 out of 5
seminal vesicles ([2]; all the treated animals, oral 0.075 mg/kg): normal
round spermatids in the epididymal caput and cauda ([2]; oral 0.075 mg/kg): No increase
rats with evidence of spermatogenic arrest ([2]; oral 0.075 mg/kg, after 2 and 4 weeks of treatment): All rats
weight of the testes and epididymides ([2]; oral 0.075 mg/kg, after 4 weeks of treatment): significantly reduced
mature sperm in the epididymides [2, 3]: no mature sperm were seen
spermatogenesis (histological analysis) [2, 3]: active spermatogenesis had resumed
weight of the testes and epididymides [2, 3]: this weight decrease persisted to some degree
fertility (mating to untreated females) [2, 4]: All tested animals were fertile
rats completely recovered (normal testes weights, complete spermatogenesis cycle, mature sperm in epididymides) [2, 4]: 2 of the 3
rats with spermatogenic arrest ([2]; oral 0.150 mg/kg, after 2 and 4 weeks of treatment): all rats
rats completely recovered (active and complete spermatogenesis, normal testes weight) ([2]; oral 0.150 mg/kg, after 23 weeks of recovery): 4 out of 6
spermatogenesis in the remaining animals ([2]; oral 0.150 mg/kg, after 23 weeks of recovery, remaining two animals): incomplete spermatogenesis no mature sperm seen in the epididymides histologically
reproduction of the recovered rats ([2]; oral 0.150 mg/kg, after 23 weeks of recovery, the 4 recovered rats): able to reproduce normally
reversibility of the effects of the drug ([2]; when administration is halted): fully reversible
